In US20220411397A1, “ANALOGUES OF N-ACYL-HOMOSERINE LACTONES AND PHARMACEUTICAL COMPOSITION COMPRISING SAME” (SORBONNE UNIVERSITE, priority 2019, published 2022):

How the values were obtained:
Assay type in all cases: cell-based
E. coli K12 strain = assay: Bactericidal dosage on the E. coli K12 strain (absorbance at 600 nm); conditions: all concentrations, maximum 100 μM shown; 18 h
Experimental: 1.1.4. Bactericidal Dosage • The K12 strain of E. coli was grown on agar on day 0 and a colony was transferred to the LYBHI liquid bacterial culture medium on day 1. On day 2, the colony was diluted 1:100 in LYBHI medium and amplified for 18 hours before transfer to an opaque 96-well plate. In each well, LYBHI, controls or increasing doses of tested molecules and bacteria were distributed. The absorbance at 600 nm was read at start-up (t=0) and after an 18-hour incubation. The raw absorbance values were corrected using the absorbance of solutions without bacteria. All experiments were performed twice, each with 4 replicates.
The E. coli K12 strain was cultured at D0 on agar gel, and then a selected colony was transferred to a liquid bacterial culture LYBHI medium at D1. At day 2, this colony was diluted 1:100 in LYBHI medium, and maintained for 18 hours for expansion before distribution in an opaque 96-well plate. In each well were distributed: LYBHI medium, bacterial culture, and test or control compounds. The absorbance of the wells was read at 600 nm at t0 and t18h. The raw absorbance values were corrected against the absorbance of the wells containing only LYBHI medium without bacteria or compounds.

Raw 264.7 murine cells = assay: Stimulation of Raw 264.7 murine cells by IFN-γ/LPS, IL-6 secretion (ELISA); conditions: for activity on IFN-γ/LPS-stimulated Raw 264.7 cells compared with natural 3-oxo-C12-HSL: 1-50 μM range
Description: 1.1.2. The Raw 264.7 Cell Line • The Raw 264.7 cell line consists of murine cells of macrophage type derived from cell line transformed by the virus of the Abelson leukaemia and providing from BALB/c mice. This cell line is very often used as a model of macrophages in vitro. The Raw 264.7 cells are capable of a phagocytosis and a pinocytosis, can kill the target cells by antibody-dependent cytotoxicity, and secrete a wide range of inflammatory cytokines as well as nitric oxide (NO). In addition, the Raw 264.7 cells are a very convenient cell line: the cells grow rapidly, appreciate the small diameter wells, and should be used before confluence. These conditions make it an advantageous line for the compound screening.
The cells were used between the passages 13 and 26. • The Raw 264.7 cells used are from the ATCC bank. They were grown in DMEM supplemented with 10% heat-inactivated foetal calf serum and 1% L-glutamine to 200 mM, and maintained at 37° C. with a 5% CO2/air atmosphere. The medium was changed every two days.
1.2.2. Stimulation of Raw 264.7 with LIPS and IFN-γ • Raw 264.7 cells were seeded in 12-well plates at 75,000 cells/well, or 24-well plates at 40,000 cells/well, to reach 80-90% confluence after 3 days of culture. […] The cells were harvested by scraping in 100 μL of PBS 1×/well and stored at −80° C. before the quantification of the total protein. […]
1.2.5. Quantification of the Murine Cytokines • The levels of IL-6 murine cytokines produced by cells were determined in cell supernatants or lysates using the commercially available “BD OptEIA Mouse IL-6 ELISA Set” from BD Biosciences (San Jose, Calif., USA, ref. 555240). All the ELISA kits were used according to the instructions of the manufacturer. • The cytokine rates were first normalized to the protein content determined in the corresponding cell lysates. […]

Caco-2/TC7 cells = assay: Cytotoxicity test, LDH secretion, Caco-2/TC7; conditions: for cytotoxicity (LDH), Caco-2/TC7: stimulated, low concentrations; for LDH secretion at the higher concentrations: ≥50 μM
Experimental: 1.2.6. […] To measure the concentration of LDH in the cell lysate, 800 μL of NADH was added to 10 μL of […] and 190 μL of 0.1 M PBS in a plastic cuvette, and the decrease in the absorbance at 340 nm was monitored for 1 min. […] The percentage of cytotoxicity could be established with the formula: […]
The cytotoxicity of the tested and control compounds was evaluated using a measurement test of the LDH (Lactate Dehydrogenase) secretion. This test is based on the measurement of the amount of LDH secreted by the cells in their supernatant, compared to the amount of LDH that will remain in the intracellular compartment. This ratio provides an indication of the membrane damage suffered by the cells, and thus of the cytotoxicity of the compound.
Two methods were used to perform this test: the measurement using an extemporaneously prepared pyruvate/NADH solution, or using the Cytotoxicity Detection Kit^PLUS(LDH) from the manufacturer Roche (Sigma-Aldrich).
Pyruvate/NADH method: pyruvate/NADH solution prepared with 4.1 mg pyruvic acid (0.62 mM) and 7.7 mg NADH (0.18 mM) in 60 ml of 0.1M PBS (pH 7.4).
For the measurement of the LDH concentration in the supernatants, 800 μL of NADH was added to 200 μL of supernatant in plastic spectrometry cuvettes, and the decrease in absorbance of the final solution was read at 340 nm for 1 min. For the measurement of the LDH concentration in the cell lysates, 800 μL of NADH was added to 10 μL of cell lysates and 190 μL of 0.1M PBS in plastic spectrometry cuvettes, and the decrease in absorbance of the final solution was read at 340 nm for 1 min. The percentage of LDH secreted was then calculated by the ratio of the decay slopes of the absorbance of the supernatants and of the cell lysates (respectively).
Cytotoxicity Detection Kit^PLUS (LDH) method: absorbance test performed according to the manufacturer's instructions. The percentage of LDH secreted was then calculated by the formula: […]

In the case of CCCCCCCCCC(=O)CC(=O)Nc1cc(Cl)ccc1O [I-6, N-(5-chloro-2-hydroxyphenyl)-3-oxododecanamide], the “comparative survival of E. coli K12” value (E. coli K12 strain) is reported as “No significant differences”, the “activity on IFN-γ/LPS-stimulated Raw 264.7 cells compared with natural 3-oxo-C12 HSL” value (Raw 264.7 murine cells; 10-50 μM range) is reported as “a significantly higher activity than that of the natural 3-oxo-C12 HSL” and the “toxicity (LDH), Caco-2/TC7” value (Caco-2/TC7 cells; any of the concentrations tested) is reported as “not toxic”.
For CCCCCCCCCC(=O)CC(=O)N[C@H]1CCCC[C@H]1O [I-4, N-[(1S,2R)-2-hydroxycyclohexyl]-3-oxo-dodecanamide], the “comparative survival of E. coli K12” value (E. coli K12 strain) was “No significant differences”, the “activity on IFN-γ/LPS-stimulated Raw 264.7 cells compared with natural 3-oxo-C12-HSL” value (Raw 264.7 murine cells) was “a higher activity than the natural 3-oxo-C12 HSL” and the LDH secretion (Caco-2/TC7 cells; Caco-2/TC7, at 100 μM) was 9%. For the same compound, the “cytotoxicity (LDH), Caco-2/TC7” value (Caco-2/TC7 cells) was “not cytotoxic at low concentrations” and the “LDH secretion at the higher concentrations” value (Caco-2/TC7 cells) was “an increase in LDH secretion”.
In the case of CCCCCCCCCC(=O)CC(=O)N[C@H]1CCCC[C@@H]1O [I-2, N-[(1S,2S)-2-hydroxycyclohexyl]-3-oxo-dodecanamide], the “comparative survival of E. coli K12” value (E. coli K12 strain) is reported as “No significant differences”, the “activity on IFN-γ/LPS-stimulated Raw 264.7 cells compared with natural 3-oxo-C12-HSL” value (Raw 264.7 murine cells) is reported as “more active than the reference molecule 3-oxo-C12-HSL” and the “cytotoxicity (LDH), Caco-2/TC7” value (Caco-2/TC7 cells) is reported as “not cytotoxic at low concentrations”. For the same compound, the “LDH secretion at the higher concentrations” value (Caco-2/TC7 cells) was “not as significant”.
